Consider two compounds from patent US20240116998A1, “GLUCAGON-LIKE PEPTIDE-1 RECEPTOR ANTAGONISTS” (INDIANA UNIVERSITY RESEARCH AND TECHNOLOGY CORPORATION, priority 2021, published 2024).

≈ marks a conversion by molar mass, not a printed value. Non-standard residues stand in square brackets, D forms with d. Residues, ends and D or L forms follow the SMILES beside them. *: point of attachment. Palmitoyl = CCCCCCCCCCCCCCCC(=O)*; Aib = CC(C)(N)C(=O)O

This data set in a line: Solubility of peptides in buffer. Format: physicochemical.

For `CCCCCCCCCCCCCCCC(=O)NCCCC[C@H](NC(=O)[C@H](CO)NC(=O)[C@@H]1CCCN1C(=O)[C@@H]1CCCN1C(=O)[C@@H]1CCCN1C(=O)[C@H](C)NC(=O)CNC(=O)[C@H](CO)NC(=O)[C@H](CO)NC(=O)[C@@H]1CCCN1C(=O)CNC(=O)CNC(=O)[C@H](CCCNC(=N)N)NC(=O)[C@@H](NC(=O)[C@H](CC(C)C)NC(=O)[C@H](Cc1c[nH]c2ccccc12)NC(=O)[C@H](C)NC(=O)[C@@H](NC(=O)[C@H](Cc1ccccc1)NC(=O)[C@H](CCC(=O)O)NC(=O)[C@H](CCCNC(=N)N)NC(=O)[C@@H](NC(=O)[C@H](C)NC(=O)[C@H](CCC(=O)O)NC(=O)[C@H](CCC(=O)O)NC(=O)[C@H](CCC(=O)O)NC(=O)[C@H](CC(C)C)NC(=O)[C@H](Cc1ccc(O)cc1)NC(=O)[C@H](CO)NC(=O)[C@H](CO)NC(=O)[C@@H](NC(=O)[C@@H](N)CC(=O)O)C(C)C)C(C)C)[C@@H](C)CC)C(C)C)C(N)=O` [SEQ ID NO: 71] (H-DVSSYLEEEAVREFIAWLVRGGPSSGAPPPSK(Palmitoyl)-NH2; N-terminus assumed), the “Solubility 80 mM AmBicarb pH 7.7” value (Table 3, 80 mM AmBicarb pH 7.7, unit not given) is listed as over 20.

On to `CCCCCCCCCCCCCCCC(=O)NCCCC[C@H](NC(=O)[C@H](CO)NC(=O)[C@@H]1CCCN1C(=O)[C@@H]1CCCN1C(=O)[C@@H]1CCCN1C(=O)[C@H](C)NC(=O)CNC(=O)[C@H](CO)NC(=O)[C@H](CO)NC(=O)[C@@H]1CCCN1C(=O)CNC(=O)CNC(=O)[C@H](CCCCN)NC(=O)[C@@H](NC(=O)C(C)(C)NC(=O)[C@H](Cc1c[nH]c2ccccc12)NC(=O)[C@H](C)NC(=O)[C@@H](NC(=O)[C@H](Cc1ccccc1)NC(=O)[C@H](CCC(=O)O)NC(=O)[C@H](CCCNC(=N)N)NC(=O)[C@@H](NC(=O)[C@H](C)NC(=O)[C@H](CCC(N)=O)NC(=O)[C@H](CCC(=O)O)NC(=O)[C@H](CCC(=O)O)NC(=O)[C@H](CC(C)C)NC(=O)[C@H](Cc1ccc(O)cc1)NC(=O)[C@H](CO)NC(=O)[C@H](CO)NC(=O)[C@@H](NC(=O)[C@@H](N)CC(=O)O)C(C)C)C(C)C)[C@@H](C)CC)C(C)C)C(N)=O` [SEQ ID NO: 44] (H-DVSSYLEEQAVREFIAW[Aib]VKGGPSSGAPPPSK(Palmitoyl)-NH2; N-terminus assumed), for which the solubility (as a rule, the dissolved amount per volume that the medium holds) (pH 7.4) was 100 µg/mL (≈ 27.7 µM).
